Results as given in paper PMC7862302, “Self-assembling thermostable chimeras as new platform for arsenic biosensing” (Scientific Reports, 2021).

What was measured:
ArsC-Vmh2 = target: T1, ArsC-Vmh2; format: binding, Thermus thermophilus; settings: chimera immobilised on gold; 50 mM Tris-HCl pH 7.5, 60 °C, 1 h incubation; detection in 1 M HCl; read-out: KAsIII (converted)
T1 construct: single-chain fusion: TtArsC (N-terminal), 15-residue flexible linker, Vmh2 of Pleurotus ostreatus, thrombin site LVPRGS, C-terminal His-tag; with Hydrophobin Vmh2 (Pleurotus ostreatus)

Vmh2-ArsC = target: T2, Vmh2-ArsC; format: binding, Thermus thermophilus; settings: chimera immobilised on gold; 50 mM Tris-HCl pH 7.5, 60 °C, 1 h incubation; detection in 1 M HCl; read-out: KAsIII (converted)
T2 construct: single-chain fusion: Vmh2 of Pleurotus ostreatus (N-terminal), 15-residue flexible linker, TtArsC, thrombin site LVPRGS, C-terminal His-tag; with Hydrophobin Vmh2 (Pleurotus ostreatus)

O=[As]O [As(III)]
Kd (ArsC-Vmh2): 1540 µM
Kd (Vmh2-ArsC): 833 µM
